Test results published in PubChem BioAssay AID1311 (NMMLSC, 2008).
Where a SMILES comes first, the peptide text is derived from it. The star is where a group is joined. Cbz = O=C(OCc1ccccc1)*

System: Yeast Sic1MUS-GFP degradation, Cln2 overexpression, flow cytometry
Assay: yeast Sic1MUS-GFP turnover with Cln2 overexpressed – flow cytometry, Cln2 overexpression, Sic1MUS mutant, mechanism study for 26S proteasome disassembly project, confirmation (AID 1311)
Conditions: hits give high values

SMILES | percent GFP remaining
CC(=O)N1C(=O)C(=C2C=C(C)OC(C)=C2)c2ccccc21 | 2.25%
CC(C)C[C@@H](C=O)NC(=O)[C@H](CC(C)C)NC(=O)[C@H](CC(C)C)NC(=O)OCc1ccccc1 (Cbz-Leu-Leu-Leu-aldehyde) | 4.05%
